Like-named read-outs stand apart in the source and are kept apart here.
Key:
[1] = test system: carrageenan-induced peritonitis; experiment: Carrageenan-induced peritonitis; format: in vivo, ICR mice; conditions: i.p. 1 h before carrageenan, 4 h
Experimental: To study the effect of 3d on carrageenan-induced peritonitis, ICR mice were injected with 1% carrageenan (250 μL) intraperitoneally (i.p.). Compound 3d (50 mg/kg), vehicle (10% Tween-80), dexamethasone (1 mg/kg) as a reference anti-inflammatory drug, and saline buffer were administered i.p. 1 h before peritonitis induction. The healthy uninflamed group (control) was injected i.p. by saline. Mice were sacrificed 4 h after carrageenan injection and their peritoneal cavities were washed with 2 mL of heparinized cold saline buffer to obtain peritoneal cells. The peritoneal exudates were collected and the total leukocyte counts were performed with a Neubauer chamber by optical microscopy after diluting the peritoneal fluid with Turk solution (1:20). To determine the differential leukocyte counts (total 100 cells), peritoneal cells were centrifuged and placed onto slides, stained with azur–eosin by Romanovsky–Giemsa and examined by optical microscopy. The results were expressed as the number of total leukocytes (×10^5 cells/mL) and the percentages of subpopulations of neutrophils, lymphocytes, and monocytes.

murine melanoma B16 = experiment: MTT cytotoxicity assay, 48 h; format: cell-based; conditions: for Selectivity index: B16: IC50 in hFF3 / IC50 in B16; for IC50: Mus musculus, MTT, 48 h
Experimental: (§1) On the first step of the biological evaluation of novel GA derivatives 3a-h, 4a-h, and 5a-h, we analyzed their cytotoxicity in a panel of cultured mammalian cells, including human cervical carcinoma HeLa and KB-3-1, human duodenal carcinoma HuTu-80, human lung adenocarcinoma A549, murine melanoma B16 cell lines, and nontransformed human fibroblasts hFF3. The cells were treated with derivatives for 48 h and cell viability was evaluated by 3-(4, 5-dimethylthiazol-2-yl)-2, 5-diphenyltetrazolium bromide (MTT) assay. Since the studied compounds contain two types of functional groups at position 3-acetoxy- or the hydroxyl-group, 3-acetoxy-GA 1 and GA-Me were used as references. Additionally, hierarchical clustering of cytotoxic data was carried out in order to reveal groups of compounds with similar cytotoxic profiles (Figure 2A).
(§2) Human cervical carcinoma HeLa and KB-3-1 cells, human duodenal carcinoma HuTu-80 cells, and human lung adenocarcinoma A549 cells were obtained from the Russian Culture Collection (Institute of Cytology, RAS, St. Petersburg, Russia). Melanoma B16-F10 (hereafter, melanoma B16) cells were obtained from the Cell Culture Bank of the Blokhin National Medical Oncology Research Center (Moscow, Russia). Nonmalignant fibroblasts hFF3 and RAW264.7 macrophages were kindly provided by Dr. Olga A. Koval (Institute of Chemical Biology and Fundamental Medicine, SB RAS, Novosibirsk, Russia) and Prof. Dmitry Kuprash (Engelhardt Institute of Molecular Biology, RAS, Moscow, Russia), respectively. The cells were cultured in DMEM (Sigma-Aldrich Inc., St. Louis, MO, USA) supplemented with 10% (v/v) heat-inactivated fetal bovine serum (FBS) (BioloT, St. Petersburg, Russia) and antibiotic–antimycotic solution (100 U/mL penicillin, 100 µg/mL streptomycin, 0.25 µg/mL amphotericin). […] The cells were incubated at 37 °C in a humidified 5% CO2-containing air atmosphere (hereafter referred to as standard conditions). GA derivatives were dissolved in DMSO (stock solutions: 10 mM) and stored at −20 °C prior to use.
(§3) Cells were seeded in tetra- or pentaplicates in 96-well plates at a density of 10^4 (tumor cells and […] fibroblasts) or 10^5 (RAW264.7 cells) cells per well. Cells were incubated under standard conditions for 24 h, followed by their treatment with the investigated derivatives (0.5–50 µM) or corresponding concentrations of DMSO (control) for a further 48 h (tumor cells and fibroblasts) or 24 h (RAW264.7 cells). At the end of incubation period, 10 µL of MTT solution was added to the cells (final concentration: 0.5 mg/mL) and plates were incubated for an additional 2 h under standard conditions. Then, the MTT-containing medium was aspirated and formazan crystals formed in living cells were solubilized with 100 µL of DMSO. The absorbance of each well was read at test and reference wavelengths of 570 and 620 nm, respectively, on a Multiscan RC plate reader (Thermo LabSystems, Helsinki, Finland). The IC50 values (the concentration of compounds leading to a decrease of A570 to 50% of A570^control) were calculated by extrapolation of the dose–response curves. […] A heatmap of SI values was constructed by Microsoft Excel 2010.

[2] = test system: human cervical carcinoma HeLa; experiment: MTT cytotoxicity assay, 48 h; format: cell-based; conditions: for IC50: Homo sapiens, HeLa, MTT, 48 h, read-out: IC50, µM Cervix HeLa; for Selectivity index: HeLa: IC50 in hFF3 / IC50 in HeLa
Experimental: as §1, §2, §3

[3] = test system: human cervical carcinoma KB-3-1; experiment: MTT cytotoxicity assay, 48 h; format: cell-based; conditions: for IC50: Homo sapiens, KB 3-1, MTT, 48 h, read-out: IC50, µM Cervix KB-3-1; for Selectivity index: KB-3-1: IC50 in hFF3 / IC50 in KB-3-1
Experimental: as §1, §2, §3

[4] = test system: nontransformed human fibroblasts hFF3; experiment: MTT cytotoxicity assay, 48 h; format: cell-based; conditions: Homo sapiens, HFF-3, read-out: IC50, µM Fibroblast hFF3
Experimental: as §1, §2, §3

[5] = test system: human duodenal carcinoma HuTu-80; experiment: MTT cytotoxicity assay, 48 h; format: cell-based; conditions: for IC50: Homo sapiens, HuTu80, MTT, 48 h, read-out: IC50, µM Duodenum HuTu-80; for Selectivity index: HuTu-80: IC50 in hFF3 / IC50 in HuTu-80
Experimental: as §1, §2, §3

[6] = test system: human lung adenocarcinoma A549; experiment: MTT cytotoxicity assay, 48 h; format: cell-based; conditions: for IC50: Homo sapiens, A549, MTT, 48 h; for Selectivity index: A549: IC50 in hFF3 / IC50 in A549
Experimental: as §1, §2, §3

[7] = test system: HeLa, KB-3-1, HuTu-80, A549, B16 and hFF3 cells; experiment: MTT cytotoxicity, summary over the panel of cell lines; format: cell-based
Experimental: as §1, §3

[8] = test system: carrageenan-induced paw edema; experiment: Carrageenan-induced paw edema; format: in vivo, ICR mice; conditions: gastric gavage 1 h before carrageenan, 5 h after induction; 3d 50 mg/kg, indomethacin 20 mg/kg
Experimental: To induce paw edema, ICR mice were injected with 1% carrageenan (50 μL) on the plantar side of the right hind paw. […] Mice were sacrificed 5 h after induction of paw edema. The percent of edema weight in carrageenan-injected compound-treated groups in comparison to that in vehicle-treated control group was calculated according to the formula: % Edema=(M1−M2/M2)^compound/∑n(M1−M2/M2)^vehicle×n×100%, where M1 is the weight of the paw with carrageenan-induced edema; M2 is the weight of the intact paws; compound and vehicle correspond to the compound- and vehicle-treated phlogogen-injected mice, respectively; and n is the number of mice in the control group (n = 9). Furthermore, paw material was collected for subsequent histological analysis.
For histological analysis, the specimens of intact and edema paws from each animal were dehydrated in ascending ethanol and xylol and embedded in HistoMix paraffin (BioVitrum, Russia). Paraffin sections (5 μm) were sliced on a Microm HM 355S microtome (Thermo Fisher Scientific, Waltham, MA, USA) and stained with hematoxylin and eosin. Images were obtained using an Axiostar Plus microscope equipped with an Axiocam MRc5 digital camera (Zeiss, Oberkochen, Germany) at ×100 and ×400 magnifications.

[9] = median over all tested cell lines, read-out: median IC50

SMILES | distribution of leukocyte subpopulations in peritoneal fluid [1] | decrease of the total leukocyte number in peritoneal exudates ([1]; 3d 50 mg/kg, dexamethasone 1 mg/kg) [fold] | Selectivity index: B16 (murine melanoma B16) | IC50 (murine melanoma B16) [µM] | IC50 [2] [µM] | Selectivity index: HeLa [2] | IC50 [3] [µM] | Selectivity index: KB-3-1 [3] | IC50 [4] [µM] | IC50 [5] [µM] | Selectivity index: HuTu-80 [5] | IC50 [6] [µM] | Selectivity index: A549 [6] | melting point | IC50 [7, 9] [µM] | cytotoxicity in all tested cell lines [7] | decrease of the weight of edema compared with vehicle-treated mice [8] | IC50 ([7]; read-out: IC50 values with respect to all tested cell lines) [µM]
C[C@@H]1C[C@H]2[C@@H]3CCC4=CC(=O)C=C[C@]4(C)[C@@]3(F)[C@@H](O)C[C@]2(C)[C@@]1(O)C(=O)CO [dexamethasone, reference compound] | did not affect the distribution of the leukocyte subpopulation | 1.8 |  |  |  |  |  |  |  |  |  |  |  |  |  |  |  | 
CC(=O)O[C@H]1CC[C@@]2(C)C(CC[C@]3(C)C2C(=O)C=C2[C@@H]4C[C@@](C)(c5nc(-c6ccccn6)no5)CC[C@]4(C)CC[C@]23C)C1(C)C (stereo partly drawn) [Compound 4f, 30-nor-3β-acetoxy-11-oxo-20-(3′-(pyridin-2′′-yl)-1′,2′,4′-oxadiazol-5′-yl)-18βH-olean-12-en] |  |  | 1.9 | 6 ± 2.3 | 17.9 ± 7.7 | 0.6 | 10.3 ± 1.2 | 1.1 | 11.5 ± 1 | 11.4 ± 1 | 1.0 | 40.3 ± 4.1 | 0.3 | 293.5 to 297.9 °C | 11.5 |  |  | 
CC(C)c1noc([C@@]2(C)CC[C@]3(C)CC[C@]4(C)C(=CC(=O)C5[C@@]6(C)CC[C@H](O)C(C)(C)C6CC[C@]54C)[C@@H]3C2)n1 (stereo partly drawn) [Compound 5c, 30-nor-3β-hydroxy-11-oxo-20-(3′-isopropyl-1′,2′,4′-oxadiazol-5′-yl)-18βH-olean-12-en] |  |  | 0.8 | 6.6 ± 0.1 | 2.6 ± 0.1 | 2.2 | 5.9 ± 0.1 | 0.9 | 5.6 ± 1 | 9.5 ± 0.5 | 0.6 | 4.5 ± 1.1 | 1.2 | 216.4 to 219.7 °C | 5.8 |  |  | 
CC(=O)O[C@H]1CC[C@@]2(C)C(CC[C@]3(C)C2C(=O)C=C2[C@@H]4C[C@@](C)(c5nc(-c6cccnc6)no5)CC[C@]4(C)CC[C@]23C)C1(C)C (stereo partly drawn) [Compound 4g, 30-nor-3β-acetoxy-11-oxo-20-(3′-(pyridin-3′′-yl)-1′,2′,4′-oxadiazol-5′-yl)-18βH-olean-12-en] |  |  |  | > 50 | > 50 |  | 9.5 ± 0.5 | > 5.3 | > 50 | 5.8 ± 0.5 | > 8.6 | 49.7 ± 4.5 | >1.0 | 253.2 °C (dec.) | 49.9 |  |  | 
CC1(C)C2CC[C@]3(C)C(C(=O)C=C4[C@@H]5C[C@@](C)(c6nc(-c7ccccc7)no6)CC[C@]5(C)CC[C@]43C)[C@@]2(C)CC[C@@H]1O (stereo partly drawn) [Compound 5e, 30-nor-3β-hydroxy-11-oxo-20-(3′-phenyl-1′,2′,4′-oxadiazol-5′-yl)-18βH-olean-12-en] |  |  |  | > 50 | 20.3 ± 2.2 | > 2.5 | > 50 |  | > 50 | > 50 |  | > 50 |  | 231.7 to 232.1 °C |  | nontoxic |  | 
CC(=O)O[C@H]1CC[C@@]2(C)C(CC[C@]3(C)C2C(=O)C=C2[C@@H]4C[C@@](C)(C(=O)O/N=C(\C)N)CC[C@]4(C)CC[C@]23C)C1(C)C (stereo partly drawn) [Compound 3a] |  |  | 0.3 | 6.8 ± 0.2 | 2.6 ± 0.1 | 0.7 | 5.9 ± 0.2 | 0.3 | 1.7 ± 0.1 | 2.3 ± 0.1 | 0.7 | 2.6 ± 0.1 | 0.7 | 112.8 to 117.3 °C | 2.6 |  |  | 
COc1ccc2c(c1)c(CC(=O)O)c(C)n2C(=O)c1ccc(Cl)cc1 [indomethacin, reference compound] |  |  |  |  |  |  |  |  |  |  |  |  |  |  |  |  | three-fold | 
CC(=O)O[C@H]1CC[C@@]2(C)C(CC[C@]3(C)C2C(=O)C=C2[C@@H]4C[C@@](C)(c5nc(-c6ccncc6)no5)CC[C@]4(C)CC[C@]23C)C1(C)C (stereo partly drawn) [Compound 4h, 30-nor-3β-acetoxy-11-oxo-20-(3′-(pyridin-4″-yl)-1′,2′,4′-oxadiazol-5′-yl)-18βH-olean-12-en] |  |  |  | > 50 | > 50 |  | > 50 |  | > 50 | 49.7 ± 2.4 | >1.0 | > 50 |  | 265.3 to 267.3 °C |  | nontoxic |  | ≥ 50
